In publication PMC8014892, “Permeation Studies across Symmetric and Asymmetric Membranes in Microdroplet Arrays” (Analytical Chemistry, 2021):
“Also recorded” adds a separate entry of the source. Where two headings read alike, the source gives them in different places.

How the values were obtained:
[1] = set-up: method as in PMID 19560324; conditions: calcein permeation across liposome membranes; cited from earlier work
[2] = Permeation across symmetric 100% DOPC DIBs in droplet pairs, fluorescence microscopy; assay type: in vitro ADME; conditions: for Permeation across the DIB (observation in words): pH 6.0, 100% DOPC DIBs, calcein observed for 2900 minutes; for Permeation across the DIB (observation in words) / Papp at 50 µM: 37 °C; for Papp at 50 µM: not told, droplet pairs, N = 27; for Papp at 50 µM / kad / kda: acceptor 100% DOPC
Experimental: The lipid-out approach was used to add phospholipids to the water/oil interface, i.e., lipids were dissolved in the oil phase. We purchased 1,2-dioleoyl-sn-glycero-3-phosphocholine (DOPC) and 1,2-dioleoyl-sn-glycero-3-phospho-L-serine (DOPS) as solutions in chloroform from Avanti Polar Lipids (Alabaster, AL, U.S.A.). We placed the required lipids in pear-shaped flasks and removed the chloroform with a rotary evaporator (Büchi Labortechnik AG, Flawil, Switzerland) forming a film. The lipid film was dissolved in a 1:1 (v/v) mix of hexadecane (reagent plus grade, Sigma–Aldrich) and squalane (Sigma–Aldrich) in an ultrasonication bath at 50 °C for ∼30 min. The final phospholipid concentration in oil was 0.625 mM for donor droplets and 1.25 mM for acceptor droplets.
We used either 100% DOPC or 30% DOPC and 70% DOPS mixtures (mole percentage). We filtrated the phospholipid-oil solution before use (0.45 μm pore size, RC 4 Male Luer Slip Minisart filters, Huberlab, Switzerland).
All aqueous solutions were prepared in LC–MS grade water (Fisher Scientific, Loughborough, U.K.). We used as buffers 20 mM 2-morpholinoethanesulfonic acid (MES, pH 6.0, Alfa Aesar), 20 mM phosphate buffer (pH 7.0, Acros Organics), 50 mM 4-(2-hydroxyethyl)-1-piperazineethanesulfonic acid (HEPES, pH 7.4, gibco, Paisley, U.K.), or 20 mM tris(hydroxymethyl)aminomethane (Tris, pH 8.0, VWR). […] PEG4-NBD was synthesized from succinimidyl 6-(N-(7-nitrobenz-2-oxa-1,3-diazol-4-yl)amino)hexanoate (NBD NHS-ester, Molecular Probes Life Technologies, Eugene, OR, U.S.A.) and amine-terminated poly(ethylene glycol)-4 alcohol (Amino-PEG4-OH, Quanta Biodesign, Plain City, OH, U.S.A.).[26] A 1:1 molar ratio of the NBD NHS-ester and Amino-PEG4-OH was reacted in a 10:1 (v/v) solution of chloroform (Sigma–Aldrich) and triethylamine (Brenntag Schweizerhall, Basel, Switzerland). The reaction was held at 45 °C for 2 h, followed by 22 °C for 12 h. Afterward, the reaction products were separated with a preparative liquid chromatography system (Prep 150 LC system, Waters). The mass of the product PEG4-NBD was confirmed with an LC–MS system (Ultimate 3000 MSQ, Dionex).
We placed the microarray plate in a removable temperature-controlled holder (T = 37 °C) with a transparent bottom, which was mounted on a motorized XY stage (HLD117, Prior) of an inverted fluorescence microscope (Olympus IX73). We carried out the experiments in an oil bath to reduce droplet evaporation. The plate holder was filled with ∼4 mL of 1:1 (v/v) hexadecane:squalane without phospholipids and 50 μL of water in all four edges to reduce droplet shrinkage. We used a self-made microfluidic T-junction device made of polycarbonate (PC) to generate droplets of ∼25 nL by continuously injecting the aqueous phase (flow rate: 0.5 μL/min) into the immiscible oil phase (flow rate: 2 μL/min). The droplets were transported through a capillary onto the microarray plate. In this time, the phospholipids in the oil aligned along the water/oil interface and formed a monolayer.[27],[28] We mounted the end of the capillary on a motorized Z stage (M-403.2PD, Physik Instrumente, Karlsruhe, Germany). The generated droplets were detected in the capillary holder with a custom-made optical droplet detection system.[22] This was utilized to selectively deposit a single droplet per predefined position by synchronizing droplet generation and capillary and microarray movements. All components of the microscope and the capillary were controlled by the software YouScope for automated microscopy (R2018, v2.1.0).[29]
Fluorescence and bright-field pictures were recorded using a light source (Lumen 300, Prior and TH4-200, Olympus) and a complementary metal oxide semiconductor (CMOS) camera (Zyla 4.2, Andor) connected to the Olympus IX73 microscope. To track fluorescein, calcein, and PEG4-NBD, a blue excitation filter set (exciter HQ470/40x, dichroic 500dcxr BS, and emitter E515lpv2; Chroma Technology Corp, Bellows Falls, VT, U.S.A.) was used. […]

[3] = Permeation over multiple compartments (one donor, four acceptor droplets in series); assay type: in vitro ADME; conditions: for Papp at 50 µM: not told
Experimental: For several acceptor droplets in series, the numerical solutions of a differential equation system according to eqs 5 to 7 were fitted to the normalized fluorescence data of donor and acceptor droplets. The solutions of the differential equation system and the fitting were performed with the Matlab (version 2018a, Mathworks) functions ode15s, fmincon (minimizing the sum of squared residues), and MultiStart. [drawing 5] 5 [drawing 6] 6 [drawing 7] 7
W(n) is the fluorescence in the water phase of droplet n, k is the mass transfer rate constant (the fit parameter), and N is the total number of donor and acceptor droplets. The expression N > 2 equals 1 if N > 2 and 0 if N ≤ 2, and n < N equals 1 if n < N and 0 if n ≥ N.
Our platform allows for spotting droplet lines, instead of just pairs. With this, we can monitor how permeation and diffusion of compounds progress over several compartments. For creation of multiple droplets, connected via DIBs, we used a modified glass plate, where cavities were created in lines. Several fluorophore-free acceptor droplets were deposited in this line accordingly. The last droplet contained fluorescein, which permeates over the multiple compartments. […] Permeation at pH 7.4 was slower, which was expected from the experiments with the droplet pairs and from the ionization state of fluorescein (Supporting Information, Figure S11). The Papp,fit at pH 7.4 was (19.01 ± 1.16) × 10^–6 cm/s, higher than determined with the droplet pairs at pH 7.0 (7.05 ± 0.42) × 10^–6 cm/s. […] The lag phase observed at pH 7.0 (Supporting Information Figure S5) has a higher impact on the fit parameters in the assay with only two droplets (reducing the apparent rate constants) than with several droplets in series.

[4] = cited from earlier work
[5] = Label-free permeation analysis of droplet pairs by LC-MS; assay type: in vitro ADME; conditions: not told, pH 6, pH 6.0, LC-MS, N = 4
Experimental: For subsequent LC–MS analysis, we used a recently developed protocol to split the droplet pairs.[24] The capillary used before for spotting of droplets was flushed with hexadecane/squalane (1:1) and placed between two connecting droplets to separate the droplet pairs. To extract individual droplets, the capillary was flushed with fluorinated oil (HFE-7500, 3 M Novec, Hadfield, U.K.) and connected to a 50 μL glass syringe (Hamilton, Switzerland). The center of the capillary was lowered to a height where it slightly squeezed the droplet. Subsequently, by slowly pulling the glass syringe, the droplet was aspirated. Afterward, the capillary was moved over a small tube (TreffLab Degersheim, Switzerland), and the aspirated droplet was ejected. […]
The sample was analyzed in a 1260 II Infinity LC Quaternary system coupled to a single quadrupole atmospheric pressure ionization-electrospray (API-ES) G6130B mass spectrometer (Agilent). […] All analytes were detected with selected ion monitoring (SIM) in a positive mode. […]
Equations 1 and 2 were fitted to the data with OriginPro. […] Data from every droplet pair were individually fitted and evaluated. […] We further approximated that the area of the droplet interface bilayer is circular,[32] and we calculated the area (A) for the individual droplet pairs via the measured droplet interface bilayer diameter from the bright-field images (as indicated in Table S1). […]

[6] = Permeation across symmetric and asymmetric DIBs containing 30% DOPC 70% DOPS, droplet pairs, fluorescence microscopy; assay type: in vitro ADME; conditions: not told
Experimental: We placed the microarray plate in a removable temperature-controlled holder (T = 37 °C) with a transparent bottom, which was mounted on a motorized XY stage (HLD117, Prior) of an inverted fluorescence microscope (Olympus IX73). We carried out the experiments in an oil bath to reduce droplet evaporation. […] The generated droplets were detected in the capillary holder with a custom-made optical droplet detection system.[22] […]
Fluorescence and bright-field pictures were recorded using a light source (Lumen 300, Prior and TH4-200, Olympus) and a complementary metal oxide semiconductor (CMOS) camera (Zyla 4.2, Andor) connected to the Olympus IX73 microscope. […]
The recorded fluorescence signals were evaluated using Fiji[30] and OriginPro (2019, 9.6, OriginLab Corporation). First, we subtracted the background fluorescence for data evaluation. In a next step, we normalized the fluorescence to compensate for potential leakage into the oil phase, membrane partitioning, shrinkage of droplets, or fluorescence bleaching. For the normalization, the sum of fluorescence of all droplets in the first image was set to 100%. […]

Question: Which permeability coefficients [1] does the source give for O=C(O)CN(CC(=O)O)Cc1cc2c(cc1O)Oc1cc(O)c(CN(CC(=O)O)CC(=O)O)cc1C21OC(=O)c2ccccc21 [calcein] here?
Answer: 10^–10 to 10^–11 cm/s

Question: And the “Permeation across the DIB (observation in words)” value (“Permeation across the DIB” below) [2]?
Answer: no permeation was observed

Question: And the “Permeation across the DIB” value ([2]; listed as Calcein)?
Answer: did not permeate; also recorded: No permeation observed

Question: With O=C1OC2(c3ccc(O)cc3Oc3cc(O)ccc32)c2ccccc21 [fluorescein] as the compound, how does the Papp at 50 µM ([3]; pH 6, one donor to four acceptor droplets, 100% DOPC, eqs 5–7 and 3, N = 12 droplet networks) read?
Answer: 200 ± 9.73 ×10⁻⁶ cm/s

Question: And the Papp at 50 µM ([3]; pH 7.4, one donor to four acceptor droplets, eqs 5–7 and 3)?
Answer: 19 ± 1.16 ×10⁻⁶ cm/s

Question: What about the “Time until equilibrium was reached in all five droplets” value ([3]; pH 6, five droplets in series) of the same compound?
Answer: approximately 30 min

Question: And the permeation constant ([4]; pH 6.4, Nisisako et al.)?
Answer: 60.0 ± 22.4 × 10^–6 cm/s

Question: And the permeation constant ([4]; pH 7.4, Schlicht and Zagnoni)?
Answer: 2.01 ± 1.46 × 10^–6 cm/s

Question: What about the permeation constant ([4]; pH 7.5, Nisisako et al.) of the same compound?
Answer: 5.1 ± 1.8 × 10^–6 cm/s

Question: And the Papp at 50 µM ([2]; pH 6, donor 100% DOPC)?
Answer: 193 ± 17.8 ×10⁻⁶ cm/s

Question: And the Papp at 50 µM ([2]; pH 7, donor 100% DOPC)?
Answer: 7.05 ± 0.42 ×10⁻⁶ cm/s

Question: And the Papp at 50 µM ([2]; pH 8, donor 100% DOPC)?
Answer: 1.05 ± 0.06 ×10⁻⁶ cm/s

Question: What about the “Permeation across the DIB” value [2] of the same compound?
Answer: permeated across the DIB

Question: And the kad ([2]; pH 6, donor 100% DOPC)?
Answer: 4046.0 × 10-6 (1/s)

Question: And the kda ([2]; pH 6, donor 100% DOPC)?
Answer: 4046.0 × 10-6 (1/s)

Question: And the kad ([2]; pH 7, donor 100% DOPC)?
Answer: 145.0 × 10-6 (1/s)

Question: And the kda ([2]; pH 7, donor 100% DOPC)?
Answer: 145.0 × 10-6 (1/s)

Question: And the kad ([2]; pH 8, donor 100% DOPC)?
Answer: 20.3 × 10-6 (1/s)

Question: And the kda ([2]; pH 8, donor 100% DOPC)?
Answer: 20.3 × 10-6 (1/s)

Question: For CC/N=c1\cc2oc3cc(NCC)c(C)cc3c(-c3ccccc3C(=O)OCC)c-2cc1C [rhodamine 6G], which Papp at 50 µM ([5]; eq 3, fit of all data, read-out: Papp.fit (MS)) is on record?
Answer: 6.28 ± 0.68 ×10⁻⁶ cm/s

Question: What about the Papp at 50 µM ([5]; eq 4, sink condition, first two data points, read-out: Papp.sink (MS)) of the same compound?
Answer: 9.42 ± 2.17 ×10⁻⁶ cm/s

Question: What about the Papp at 50 µM ([2]; pH 6, donor 100% DOPC) of the same compound?
Answer: 10.4 ×10⁻⁶ cm/s

Question: What about the kad ([2]; pH 6, donor 100% DOPC) of the same compound?
Answer: 166.8 × 10-6 (1/s)

Question: And the kda ([2]; pH 6, donor 100% DOPC)?
Answer: 166.8 × 10-6 (1/s)

Question: And the Papp at 50 µM ([6]; pH 6, pH 6, donor 30% DOPC 70% DOPS, acceptor 30% DOPC 70% DOPS (symmetric))?
Answer: 12.1 ×10⁻⁶ cm/s

Question: And the Papp at 50 µM ([6]; pH 6, pH 6, donor 30% DOPC 70% DOPS, acceptor 100% DOPC (asymmetric))?
Answer: 19.6 ×10⁻⁶ cm/s

Question: And the Papp at 50 µM ([6]; pH 6, pH 6, donor 100% DOPC, acceptor 30% DOPC 70% DOPS (asymmetric))?
Answer: 6.56 ×10⁻⁶ cm/s
